Laboratory results as given in the Kinase Knowledgebase extract (Sharma et al. 2016).

Molecular target: EGFR (human) (UniProt P00533)
Sequence (P00533 whole entry, looked up): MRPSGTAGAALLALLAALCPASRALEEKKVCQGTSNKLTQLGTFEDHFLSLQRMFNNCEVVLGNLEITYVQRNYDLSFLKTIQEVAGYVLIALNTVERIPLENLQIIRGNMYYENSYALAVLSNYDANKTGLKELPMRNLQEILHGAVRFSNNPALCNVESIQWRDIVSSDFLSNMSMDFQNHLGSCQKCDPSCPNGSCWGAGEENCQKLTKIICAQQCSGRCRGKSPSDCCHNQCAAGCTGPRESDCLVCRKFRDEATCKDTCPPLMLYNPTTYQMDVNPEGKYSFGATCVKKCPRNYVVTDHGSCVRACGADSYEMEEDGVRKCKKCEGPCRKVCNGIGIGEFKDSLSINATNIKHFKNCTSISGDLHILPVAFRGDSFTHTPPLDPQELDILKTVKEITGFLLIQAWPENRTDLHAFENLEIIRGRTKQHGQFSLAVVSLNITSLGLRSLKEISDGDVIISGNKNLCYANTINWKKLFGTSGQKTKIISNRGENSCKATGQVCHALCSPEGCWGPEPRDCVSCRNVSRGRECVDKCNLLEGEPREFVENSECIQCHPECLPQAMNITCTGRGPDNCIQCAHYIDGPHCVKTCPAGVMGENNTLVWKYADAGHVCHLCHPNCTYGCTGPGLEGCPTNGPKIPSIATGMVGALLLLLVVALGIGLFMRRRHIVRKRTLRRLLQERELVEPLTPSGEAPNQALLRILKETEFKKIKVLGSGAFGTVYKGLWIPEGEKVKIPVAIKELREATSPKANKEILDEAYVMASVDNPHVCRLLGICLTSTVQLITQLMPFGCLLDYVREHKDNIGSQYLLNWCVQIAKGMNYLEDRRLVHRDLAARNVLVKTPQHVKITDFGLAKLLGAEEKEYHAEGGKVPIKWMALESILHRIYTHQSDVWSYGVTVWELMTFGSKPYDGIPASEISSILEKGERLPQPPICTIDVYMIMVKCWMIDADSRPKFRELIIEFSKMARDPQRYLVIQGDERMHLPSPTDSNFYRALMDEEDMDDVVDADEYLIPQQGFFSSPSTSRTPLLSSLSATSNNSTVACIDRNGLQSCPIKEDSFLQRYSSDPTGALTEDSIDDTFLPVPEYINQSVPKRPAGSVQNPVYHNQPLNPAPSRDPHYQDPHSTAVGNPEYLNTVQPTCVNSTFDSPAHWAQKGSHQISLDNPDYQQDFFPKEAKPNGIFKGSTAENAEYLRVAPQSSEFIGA

| IC50 | SMILES |
| --- | --- |
| 194 nM | C=CC(=O)N1CCC[C@@H](n2nc(-c3ccc(CNS(=O)(=O)c4cc(C)ccc4C)cc3)c3c(N)ncnc32)C1 |
| 290 nM | C=CC(=O)N1CCC[C@@H](n2nc(-c3ccc(CNS(=O)(=O)c4cccc(OC)c4)cc3)c3c(N)ncnc32)C1 |
| 351 nM | C=CC(=O)N1CCC[C@@H](n2nc(-c3ccc(CNS(=O)(=O)c4cc(C)ccc4OC)cc3)c3c(N)ncnc32)C1 |
| 64.6 nM | C=CC(=O)N1CCC[C@@H](n2nc(-c3ccc(CNS(=O)(=O)c4cc(C)ccc4F)cc3)c3c(N)ncnc32)C1 |
| 168 nM | C=CC(=O)N1CCC[C@@H](n2nc(-c3ccc(CNS(=O)(=O)c4ccccc4Cl)cc3)c3c(N)ncnc32)C1 |
| 132 nM | C=CC(=O)N1CCC[C@@H](n2nc(-c3ccc(CNS(=O)(=O)CC)cc3)c3c(N)ncnc32)C1 |
| 323 nM | C=CC(=O)N1CCC[C@@H](n2nc(-c3ccc(CNS(=O)(=O)c4ccc(C)cc4OC)cc3)c3c(N)ncnc32)C1 |
| 73 nM | C=CC(=O)N1CCC[C@@H](n2nc(-c3ccc(CNS(=O)(=O)c4ccc(-c5ccccc5)cc4)cc3)c3c(N)ncnc32)C1 |
| 91.8 nM | C=CC(=O)N1CCC[C@@H](n2nc(-c3ccc(CNS(=O)(=O)c4ccccc4C)cc3)c3c(N)ncnc32)C1 |
| 81.7 nM | C=CC(=O)N1CCC[C@@H](n2nc(-c3ccc(CNS(=O)(=O)c4cccc(F)c4)cc3)c3c(N)ncnc32)C1 |
| 572 nM | N#CN1CCC[C@@H](n2nc(-c3ccc(CNS(=O)(=O)c4cccc(Cl)c4)cc3)c3c(N)ncnc32)C1 |
| 174 nM | C=CC(=O)N1CCC[C@@H](n2nc(-c3ccc(CNS(=O)(=O)c4ccc(C)cc4F)cc3)c3c(N)ncnc32)C1 |
| 277 nM | C=CC(=O)N1CCC[C@@H](n2nc(-c3ccc(CNS(=O)(=O)CCC(F)(F)F)cc3)c3c(N)ncnc32)C1 |
| 199 nM | C=CC(=O)N1CCC[C@@H](n2nc(-c3ccc(CNS(=O)(=O)c4ccc(F)c(C(F)(F)F)c4)cc3)c3c(N)ncnc32)C1 |
| 163 nM | C=CC(=O)N1CCC[C@@H](n2nc(-c3ccc(CNS(=O)(=O)c4cc(F)ccc4OC)cc3)c3c(N)ncnc32)C1 |
| 95.7 nM | C=CC(=O)N1CCC[C@@H](n2nc(-c3ccc(CNS(=O)(=O)c4c(F)cccc4F)cc3)c3c(N)ncnc32)C1 |
| 371 nM | C=CC(=O)N1CCC[C@@H](n2nc(-c3ccc(CNS(=O)(=O)c4ccc(OCC)cc4)cc3)c3c(N)ncnc32)C1 |
| 120 nM | C=CC(=O)N1CCC[C@@H](n2nc(-c3ccc(CNS(=O)(=O)c4cc(Cl)ccc4F)cc3)c3c(N)ncnc32)C1 |
| 60.5 nM | C=CC(=O)N1CCC[C@@H](n2nc(-c3ccc(CNS(=O)(=O)c4ccc(Cl)cc4)cc3)c3c(N)ncnc32)C1 |
| 250 nM | C=CC(=O)N1CCC[C@@H](n2nc(-c3ccc(CNS(=O)(=O)c4ccc(C)cc4C)cc3)c3c(N)ncnc32)C1 |

| IC50 | SMILES |
| --- | --- |
| 98.7 nM | C=CC(=O)N1CCC[C@@H](n2nc(-c3ccc(CNS(=O)(=O)c4ccc5ccccc5c4)cc3)c3c(N)ncnc32)C1 |
| 129 nM | C=CC(=O)N1CCC[C@@H](n2nc(-c3ccc(CNS(=O)(=O)c4ccc(OC)cc4)cc3)c3c(N)ncnc32)C1 |
| 45 nM | C=CC(=O)N1CCC[C@@H](n2nc(-c3ccc(CNS(=O)(=O)C4CCCCC4)cc3)c3c(N)ncnc32)C1 |
| 86.2 nM | C=CC(=O)N1CCC[C@@H](n2nc(-c3ccc(CNS(=O)(=O)c4cccc(C)c4)cc3)c3c(N)ncnc32)C1 |
| 78.8 nM | C=CC(=O)N1CCC[C@@H](n2nc(-c3ccc(CN(C)S(=O)(=O)c4ccccc4F)cc3)c3c(N)ncnc32)C1 |
| 58.1 nM | C=CC(=O)N1CCC[C@@H](n2nc(-c3ccc(CNS(=O)(=O)c4cccc5ccccc45)cc3)c3c(N)ncnc32)C1 |
| 97.7 nM | C=CC(=O)N1CCC[C@@H](n2nc(-c3ccc(CNS(=O)(=O)c4cc(F)cc(C(F)(F)F)c4)cc3)c3c(N)ncnc32)C1 |
| 90.7 nM | C=CC(=O)N1CCC[C@@H](n2nc(-c3ccc(CNS(=O)(=O)c4ccc(C)cc4)cc3)c3c(N)ncnc32)C1 |
| 73.3 nM | C=CC(=O)N1CCC[C@@H](n2nc(-c3ccc(CNS(=O)(=O)c4ccc5c(c4)CCC5)cc3)c3c(N)ncnc32)C1 |
| 363 nM | C=CC(=O)N1CCC[C@@H](n2nc(-c3ccc(CNS(=O)(=O)c4ccc(F)cc4)cc3)c3c(N)ncnc32)C1 |
| 124 nM | C=CC(=O)N1CCC[C@@H](n2nc(-c3ccc(CNS(=O)(=O)c4ccc(F)cc4F)cc3)c3c(N)ncnc32)C1 |
| 45.7 nM | C=CC(=O)N1CCC[C@@H](n2nc(-c3ccc(CNS(=O)(=O)c4cccc(Cl)c4)cc3)c3c(N)ncnc32)C1 |
| 151 nM | C=CC(=O)N1CCC[C@@H](n2nc(-c3ccc(CNS(=O)(=O)c4cc(C(F)(F)F)ccc4F)cc3)c3c(N)ncnc32)C1 |
| 86.3 nM | C=CC(=O)N1CCC[C@@H](n2nc(-c3ccc(CNS(=O)(=O)c4ccccc4C(F)(F)F)cc3)c3c(N)ncnc32)C1 |
| 452 nM | C=CC(=O)N1CCC[C@@H](n2nc(-c3ccc(CNS(=O)(=O)c4ccccc4OC(F)(F)F)cc3)c3c(N)ncnc32)C1 |
| 265 nM | C=CC(=O)N1CCC[C@@H](n2nc(-c3ccc(CNS(=O)(=O)c4ccccc4)cc3)c3c(N)ncnc32)C1 |
| 272 nM | N#CN1CCC[C@@H](n2nc(-c3ccc(CNS(=O)(=O)c4cccc(F)c4)cc3)c3c(N)ncnc32)C1 |
| 120 nM | C=CC(=O)N1CCC[C@@H](n2nc(-c3ccc(CNS(=O)(=O)c4cc(F)cc(F)c4)cc3)c3c(N)ncnc32)C1 |
| 41 nM | C=CC(=O)N1CCC[C@@H](n2nc(-c3ccc(CNS(=O)(=O)c4ccccc4F)cc3)c3c(N)ncnc32)C1 |
| 112 nM | C=CC(=O)N1CCC[C@@H](n2nc(-c3ccc(CNS(C)(=O)=O)cc3)c3c(N)ncnc32)C1 |
